Organism: Rattus norvegicus
Experiment: DrugMatrix - Regimen: Daily Repeat
Assay type: toxicity, organism-based, Sprague-Dawley
Design: regimen Daily Repeat, gender Male, age 6-8 weeks
Conditions: in vivo, po, route oral GAVAGE, vehicle 100 % WATER; for ABSOLUTE BASOPHIL / ABSOLUTE EOSINOPHIL / ABSOLUTE LYMPHOCYTE / ABSOLUTE MONOCYTE / ABSOLUTE SEGMENTED NEUTROPHIL / BASOPHIL / EOSINOPHIL / ERYTHROCYTE COUNT / HEMATOCRIT / HEMOGLOBIN / LEUKOCYTE COUNT / LYMPHOCYTE / MEAN CORPUSCULAR HEMOGLOBIN / MEAN CORPUSCULAR HEMOGLOBIN CONCENTRATION / MEAN CORPUSCULAR VOLUME / MONOCYTE / NEUTROPHIL / NUCLEATED RED BLOOD CELLS / PLATELET COUNT: tissue Blood; for ALANINE AMINOTRANSFERASE / ALBUMIN / ALKALINE PHOSPHATASE / ASPARTATE AMINOTRANSFERASE / BLOOD UREA NITROGEN / CARBON DIOXIDE / CHLORIDE / CHOLESTEROL / CREATINE PHOSPHOKINASE / CREATININE / GLUCOSE / LACTATE DEHYDROGENASE / LIPASE / PHOSPHORUS / SODIUM / TOTAL BILIRUBIN / TOTAL PROTEIN / URIC ACID: tissue Plasma
[1] = 200 mg/kg, 120 h, dose level Low, time 5 day
[2] = 1100 mg/kg, 72 h, dose level High, time 3 day
[3] = 1100 mg/kg, 120 h, dose level High, time 5 day

## CC1(C)S[C@@H]2[C@H](NC(=O)[C@H](N)c3ccc(O)cc3)C(=O)N2[C@H]1C(=O)O [AMOXICILLIN]
[1]
  ABSOLUTE BASOPHIL: 0 CELLS/uL
  ABSOLUTE EOSINOPHIL: 0 CELLS/uL
  ABSOLUTE LYMPHOCYTE: 6222 CELLS/uL
  ABSOLUTE MONOCYTE: 124 CELLS/uL
  ABSOLUTE SEGMENTED NEUTROPHIL: 487.33 CELLS/uL
  BASOPHIL: 0%
  EOSINOPHIL: 0%
  ERYTHROCYTE COUNT: 5.52 x10E6/uL
  HEMATOCRIT: 34.17%
  HEMOGLOBIN: 13.17 G/DL
  LEUKOCYTE COUNT: 6.83 x10E3/uL
  LYMPHOCYTE: 90.67%
  MEAN CORPUSCULAR HEMOGLOBIN: 23.87 pg
  MEAN CORPUSCULAR HEMOGLOBIN CONCENTRATION: 38.53 G/DL
  MEAN CORPUSCULAR VOLUME: 61.87 fL
  MONOCYTE: 2%
  NEUTROPHIL: 7.33%
  NUCLEATED RED BLOOD CELLS: 0 /100WBC
  PLATELET COUNT: 1169.67 x10E3/uL
  ALANINE AMINOTRANSFERASE: 61.67 u/L
  ALBUMIN: 4.07 G/DL
  ALKALINE PHOSPHATASE: 419.67 u/L
  ASPARTATE AMINOTRANSFERASE: 85.33 u/L
  BLOOD UREA NITROGEN: 19 mg/dL
  CARBON DIOXIDE: 35 mmol/L
  CHLORIDE: 99.33 MEQ/L
  CHOLESTEROL: 64.33 mg/dL
  CREATINE PHOSPHOKINASE: 366.67 u/L
  CREATININE: 0.22 mg/dL
  GLUCOSE: 133.67 mg/dL
  LACTATE DEHYDROGENASE: 112.33 u/L
  LIPASE: 9 u/L
  PHOSPHORUS: 11.07 mg/dL
  SODIUM: 143.8 MEQ/L
  TOTAL BILIRUBIN: 0.17 mg/dL
  TOTAL PROTEIN: 6.17 G/DL
  URIC ACID: 0.73 mg/dL
[2]
  ABSOLUTE BASOPHIL: 0 CELLS/uL
  ABSOLUTE EOSINOPHIL: 0 CELLS/uL
  ABSOLUTE LYMPHOCYTE: 13682.33 CELLS/uL
  ABSOLUTE MONOCYTE: 492.67 CELLS/uL
  ABSOLUTE SEGMENTED NEUTROPHIL: 958.33 CELLS/uL
  BASOPHIL: 0%
  EOSINOPHIL: 0%
  ERYTHROCYTE COUNT: 6.16 x10E6/uL
  HEMATOCRIT: 39.43%
  HEMOGLOBIN: 14.47 G/DL
  LEUKOCYTE COUNT: 15.13 x10E3/uL
  LYMPHOCYTE: 90%
  MEAN CORPUSCULAR HEMOGLOBIN: 23.5 pg
  MEAN CORPUSCULAR HEMOGLOBIN CONCENTRATION: 36.7 G/DL
  MEAN CORPUSCULAR VOLUME: 64.03 fL
  MONOCYTE: 3.33%
  NEUTROPHIL: 6.67%
  NUCLEATED RED BLOOD CELLS: 0 /100WBC
  PLATELET COUNT: 1311.33 x10E3/uL
  ALANINE AMINOTRANSFERASE: 52.33 u/L
  ALBUMIN: 4.43 G/DL
  ALKALINE PHOSPHATASE: 365.33 u/L
  ASPARTATE AMINOTRANSFERASE: 83 u/L
  BLOOD UREA NITROGEN: 16.33 mg/dL
  CARBON DIOXIDE: 32 mmol/L
  CHLORIDE: 101.33 MEQ/L
  CHOLESTEROL: 79.67 mg/dL
  CREATINE PHOSPHOKINASE: 343 u/L
  CREATININE: 0.2 mg/dL
  GLUCOSE: 138 mg/dL
  LACTATE DEHYDROGENASE: 129.67 u/L
  LIPASE: 9.33 u/L
  PHOSPHORUS: 12.4 mg/dL
  SODIUM: 142.9 MEQ/L
  TOTAL BILIRUBIN: 0.17 mg/dL
  TOTAL PROTEIN: 6.17 G/DL
  URIC ACID: 2.13 mg/dL
[3]
  ABSOLUTE BASOPHIL: 0 CELLS/uL
  ABSOLUTE EOSINOPHIL: 0 CELLS/uL
  ABSOLUTE LYMPHOCYTE: 7076 CELLS/uL
  ABSOLUTE MONOCYTE: 76 CELLS/uL
  ABSOLUTE SEGMENTED NEUTROPHIL: 448 CELLS/uL
  BASOPHIL: 0%
  EOSINOPHIL: 0%
  ERYTHROCYTE COUNT: 6.01 x10E6/uL
  HEMATOCRIT: 37.2%
  HEMOGLOBIN: 14.1 G/DL
  LEUKOCYTE COUNT: 7.6 x10E3/uL
  LYMPHOCYTE: 92.33%
  MEAN CORPUSCULAR HEMOGLOBIN: 23.5 pg
  MEAN CORPUSCULAR HEMOGLOBIN CONCENTRATION: 37.9 G/DL
  MEAN CORPUSCULAR VOLUME: 61.93 fL
  MONOCYTE: 1%
  NEUTROPHIL: 6.67%
  NUCLEATED RED BLOOD CELLS: 0 /100WBC
  PLATELET COUNT: 1145.67 x10E3/uL
  ALANINE AMINOTRANSFERASE: 59.33 u/L
  ALBUMIN: 4.43 G/DL
  ALKALINE PHOSPHATASE: 434 u/L
  ASPARTATE AMINOTRANSFERASE: 94.33 u/L
  BLOOD UREA NITROGEN: 17.33 mg/dL
  CARBON DIOXIDE: 33 mmol/L
  CHLORIDE: 100.33 MEQ/L
  CHOLESTEROL: 75 mg/dL
  CREATINE PHOSPHOKINASE: 622.67 u/L
  CREATININE: 0.12 mg/dL
  GLUCOSE: 113 mg/dL
  LACTATE DEHYDROGENASE: 161.33 u/L
  LIPASE: 9 u/L
  PHOSPHORUS: 10.27 mg/dL
  SODIUM: 144.67 MEQ/L
  TOTAL BILIRUBIN: 0.13 mg/dL
  TOTAL PROTEIN: 5.67 G/DL
  URIC ACID: 0.8 mg/dL

From ChEMBL document CHEMBL3885881, “DrugMatrix”
